Source: US8129357B2, “Method of making and using an adenosine analogue” (Academia Sinica, priority 2006, dated 2012)
“Also recorded” adds a separate entry of the source.

Assays:
[1] = target: T1, A2A-R (Rattus norvegicus, UniProt P30543); experiment: Cellular cAMP content of ST14A cells; type: cell-based; details: for intracellular cAMP level: 20 min at RT, CGS21680 10 μM, T1-C 10 μM, T1-11 26.8 μM
T1 construct: treating ST14A cells (Ehrlich, et al. (2001)) with either T1-C or T1-11 also elevated the intracellular cAMP level; endogenous in cells; host or cells: ST14A striatal progenitor cell line
T1 sequence (P30543 whole entry): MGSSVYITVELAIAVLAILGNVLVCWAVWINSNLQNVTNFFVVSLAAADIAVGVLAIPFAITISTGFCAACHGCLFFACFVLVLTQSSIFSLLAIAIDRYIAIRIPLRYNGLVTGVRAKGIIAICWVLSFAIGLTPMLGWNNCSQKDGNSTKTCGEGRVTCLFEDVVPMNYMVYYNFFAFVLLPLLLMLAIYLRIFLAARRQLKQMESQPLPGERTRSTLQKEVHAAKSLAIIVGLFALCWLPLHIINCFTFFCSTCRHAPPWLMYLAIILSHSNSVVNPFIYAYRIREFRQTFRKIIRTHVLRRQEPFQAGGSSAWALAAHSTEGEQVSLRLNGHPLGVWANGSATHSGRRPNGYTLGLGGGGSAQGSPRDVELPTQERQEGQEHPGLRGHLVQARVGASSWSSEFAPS

[2] = tested on: PC12 cells; experiment: MTT assay: protection of serum-deprived PC12 cells from apoptosis; type: cell-based, rat; details: 24 h treatment
Description: PC12 cells purchased from American Type Culture Collection (ATCC, Manassas, Va., USA) were maintained in Dulbecco's Modified Eagle Medium (DMEM) supplemented with 10% horse serum and 5% fetal bovine serum and incubated in a CO2 incubator (5%) at 37° C. The striatal progenitor cell line (ST14A) was obtained from Dr. E. Cattaneo (University of Milano, Italy) and was maintained in an incubation chamber with 10% CO2-90% air at 33° C. as described previously (Ehrlich, et al. (2001)).
PC12 cells were serum-deprived by three washes of phosphate buffered saline (PBS) and resuspended in DMEM. The suspended cells were plated on 96-well plates (1×10^4 cells/well) and treated with the indicated reagent(s). After treatment for 21 h, 3-(4,5-dimethylthiazol-2-yl)-2,5-diphenyl tetrazolium bromide (MTT) was added to the medium (0.5 mg/mL) and incubated at 37° C. for another 3 h. After discarding the medium, 100 μl dimethyl sulfoxide (DMSO) was then applied to each well to dissolve the formazan crystals and the absorbances at 570 and 630 nm in each well were measured on a micro-enzyme linked immunosorbent assay (ELISA) reader.

[3] = tested on: BV2 cells; experiment: LPS-evoked iNOS induction and NO production in BV2 cells; type: cell-based
[4] = tested on: primary astrocytes from wildtype (WT) and R6/2-J2 mice; experiment: LPS-induced iNOS expression and NO production in primary astrocytes; type: cell-based, mouse; details: primary astrocytes from WT and R6/2-J2 mice
Description: Primary astrocytes were purified from neonatal (1-2-day old) brains of R6/2 HD mice (Mangiarini, L., et al., Exon 1 of the HD gene with an expanded CAG repeat is sufficient to cause a progressive neurological phenotype in transgenic mice. Cell 87, 493-506 (1996)) and their littermates as the WT control. In brief, the cortexes were carefully removed, digested with 0.05% trypsin-EDTA (Gibco, Grand Island, N.Y., USA) at 37° C. for 10 min, then mechanically dissociated by gentle pipetting and passed through a 70-μm-pore nylon mesh. […] Mutant Htt expression was measured by a mouse monoclonal anti-human Htt antibody (EM48) (1:200 dilution, Chemicon International, Temecula, Calif., USA). The purity of the primary astrocyte cultures was determined by immunocytochemical staining using an antibody against an astrocyte-specific marker (GFAP, dilution 1:1000; Sigma, St. Louis, Mo., USA) or a microglia-specific marker (anti-CD11b, dilution 1:200, Serotec, Oxford, UK). […]
Protein concentrations were determined using the Bio-Rad Protein Assay Dye Reagent Concentrate (Bio-Rad, Hercules, Calif., USA). […]
For the measurement of NO production, cells (5×10^5 cells/well) were treated with lipopolysaccharide (LPS, 0.5 μg/ml) in the presence of the desired drug for 72 hr. […] The absorbance at 540 nm was then monitored. […]

[5] = tested on: R6/2 mice; experiment: Survival / lifespan of R6/2 mice; type: in vivo, mouse; details: for lifespan of R6/2 mice: drinking water from the age of 4 weeks, T1-C 0.5 mg/mL, T1-11 0.05 mg/mL; for mean survival time: mean±SEM, n=7~8, T1-C 0.5 mg/mL, T1-11 0.05 mg/mL in drinking water, control 94.9±2.5
[6] = Body weight of R6/2 mice; type: in vivo, mouse; details: drinking water from the age of 4 weeks, T1-C 0.5 mg/mL, T1-11 0.05 mg/mL
[7] = tested on: R6/2 mice; experiment: Rotarod performance (motor coordination) in R6/2 mice; type: in vivo, mouse; details: drinking water from the age of 4 weeks, T1-C 0.5 mg/mL, T1-11 0.05 mg/mL
Excerpt: Male R6/2 mice and littermate controls were mated to female control mice (B6CBAFI/J). Mice were obtained from Jackson Laboratories, Bar Harbor, Me., USA. Offspring were identified by the PCR genotyping technique of genomic DNA extracted from tail tissues using primers located in the transgene (5′-[…]-3′ (SEQ ID NO: 1) and 5′-[…]-3′ (SEQ ID NO: 2)) to ensure that the number of CAG repeats remained approximately 150. In total, 67 R6/2 transgenic mice were used in this study. Animals were housed at the Institute of Biomedical Sciences Animal Care Facility under a 12-h light/dark cycle. Daily injections of the indicated reagent were given between 13:00 and 18:00. Body weights of mice were recorded once daily, prior to diet administration. Animal experiments were performed under protocols approved by the Academia Sinica Institutional Animal Care and Utilization Committee, Taiwan.
Motor coordination was assessed using a rotarod apparatus (UGO BASILE, Comerio, Italy) at a constant speed (12 rpm) over the period of 2 min (Carter, et al. (1999)). All mice were trained for 2 days at the age of 6 weeks to allow them to become acquainted with the rotarod apparatus. Animals were then tested three times per week from the ages of 7 to 12 weeks. For each test, animals were placed in the apparatus before initiation of rotation. Latency to falling was automatically recorded. […]

SMILES | suppression of the cAMP response by A2A-R antagonist [1] | protection of PC12 cells from apoptosis induced by serum withdrawal (cell viability, MTT) [2] | LPS-evoked NO production [3] | LPS-evoked iNOS induction [3] | LPS-induced inflammation (iNOS expression and NO production) [4] | intracellular cAMP level [1] | lifespan of R6/2 mice [5] | mean survival time [5] [days] | body weight loss [6] | progressive deterioration of motor coordination (rotarod performance) [7]
Cn1c(=O)c2c(nc(/C=C/c3cccc(Cl)c3)n2C)n(C)c1=O [CSC, reference compound] | suppressed |  |  |  |  |  |  |  |  | 
OCC1OC(n2cnc3c(NCc4ccc(O)cc4)ncnc32)C(O)C1O (stereo not shown) [T1-11, 2-(6-(4-hydroxybenzylamino)-9H-purin-9-yl)-5-(hydroxymethyl)tetrahydrofuran-3,4-diol] |  | active; also recorded: much more potent than T1-C | reduces | reduces | effectively suppressed | elevated | elongated | 104.9 ± 5.2 | ameliorated | markedly delayed
Oc1ccc(CSCc2ccc(O)cc2)cc1 [T1-C, 4,4′-dihydroxybenzyl sulfide] |  | active |  |  |  | elevated | elongated | 106.7 ± 4.6 | ameliorated | markedly delayed
